Values quoted from earlier work, collected in US20240390359A1, “METHODS FOR THE TREATMENT AND PREVENTION OF NON-VIRAL TICK-BORNE DISEASES AND SYMPTOMS THEREOF” (priority 2023, published 2024).

Legend:
[1] = system: Babesia microti; conditions: Mongolian jirds; primaquine given daily; cited from earlier work
[2] = system: P. falciparum; conditions: 250 mg/day; cited from earlier work
[3] = system: P. falciparum; conditions: 250 mg/day; cited from earlier work; remark: listed apart in the source
[4] = system: various serovars of Leptospira; conditions: exposure for as little as 30 min; cited from earlier work
[5] = system: Babesia parasites; conditions: 100 microM for 2h, in vitro; cited from earlier work
[6] = system: Borrelia burgdoferi B31 5A18NP1 strain; conditions: 4 h; cited from earlier work
[7] = system: Trypanosome brucei blood stage forms; conditions: exposure for 90 minutes; cited from earlier work
[8] = system: Treponema palludum; conditions: 50 or 100 microM for two hours in a 3% oxygen atmosphere; cited from earlier work
[9] = system: Pneumocystis; conditions: mice; cited from earlier work
[10] = system: P. falciparum gametocytes; conditions: single dose combined with dihydroartemisinin/piperaquine; cited from earlier work
[11] = system: Babesia; conditions: mice; cited from earlier work
[12] = cited from earlier work
[13] = system: B. rodhaini; conditions: single dose of 20 mg/kg; immunocompromised SCID mice; cited from earlier work
[14] = system: blood stages of P. falciparum; conditions: in vivo; cited from earlier work
[15] = system: Plasmodium falciparum; conditions: 600 mg loading dose followed by 200 mg; challenge three days after last dose; all control subjects developed parasitemia; cited from earlier work
[16] = system: intracellular amastigote forms of Leishmania major; conditions: cited from earlier work
[17] = system: extracellular blood stage forms of Trypanosoma brucei; conditions: cited from earlier work
[18] = system: B. microti; conditions: one patient, prior rituximab; tafenoquine as monotherapy for six weeks at approved malaria prevention dose; cited from earlier work
[19] = system: free-living gram-negative and gram-positive bacteria; conditions: cited from earlier work
[20] = system: B. rodhaini; conditions: cited from earlier work
[21] = system: B. gibsoni; conditions: splenectomized dogs, cited from earlier work
[22] = cited from earlier work; remark: listed apart in the source
[23] = system: Plasmodium vivax; conditions: monotherapy 400 mg/day for three days, cited from earlier work
[24] = in vivo; cited from earlier work
[25] = 600 mg over three days then 200 mg weekly for up to one year; cited from earlier work

For `COc1cc(NC(C)CCCN)c2nccc(C)c2c1` (centres unmarked) [4-methyl substituted primaquine], the “efficacy against Babesia microti” value [1] is given as “more efficacious than primaquine”.
In the case of `CC[C@H]1OC(=O)[C@H](C)[C@@H](O[C@H]2C[C@@](C)(OC)[C@@H](O)[C@H](C)O2)[C@H](C)[C@@H](O[C@@H]2O[C@H](C)C[C@H](N(C)C)[C@H]2O)[C@](C)(O)C[C@@H](C)CN(C)[C@H](C)[C@@H](O)[C@]1(C)O` [Azithromycin], the “Protective Efficacy (%) Relative to Placebo, Pf/Semi-Immune” value [2] is listed as 83% (Anderson) and the “Protective Efficacy (%) Relative to Placebo, PF/Non-immune or Malaria-naïve” value [3] is listed as 72% (Taylor).
In the case of `OO` [hydrogen peroxide], the “exogenous hydrogen peroxide concentrations that killed” value [4] is given as under 180 µM, the “killing of Babesia parasites” value [5] is given as “kills Babesia parasites in vitro” and the “lowest concentration that inhibited growth” value [6] is given as 62.5 µM. The “hydrogen peroxide concentration that killed blood stage forms” value [7] was “approximately 140 microM” and the growth [8] was “significantly inhibited”.
In the case of `COc1cc(NC(C)CCCN)c2ncccc2c1` (centres unmarked) [primaquine], the “cure of Pneumocystis infections” value [9] is listed as “must be combined with clindamycin”, the “time until gametocyte infectivity statistically lower than reference values” [10] is listed as “two days post-dosing” and the “single dose that cleared Babesia parasitemia” value [11] is listed as 100 mg/kg.
For `COc1cc(C)c2c(Oc3cccc(C(F)(F)F)c3)c(OC)cc(NC(C)CCCN)c2n1` (centres unmarked) [tafenoquine, N (4)-[2,6-Dimethoxy-4-methyl-5-[3-(trifluoromethyl)phenoxy]quinolin-8-yl] pentane-1,4-diamine], the “doses that may not be well tolerated” value ([12]; G6PD deficient subjects) is listed as at least 300 mg, the “doses that may be well tolerated” value ([12]; G6PD normal adult subjects) is listed as “up to 400 mg” and the “doses often not well tolerated” value ([12]; adult subjects regardless of G6PD status) is listed as “above 400 mg”. The death [13] was “delayed not prevent”, the “activity against the blood stages of P. falciparum” value [14] was “quite effective” and the “development of blood stage parasitemia after challenge” value [15] was “none of the tafenoquine subjects did”. The potency of killing [16] was under 4 µM, the potency of killing [17] was under 4 µM and the “clinical outcome of babesiosis treatment” value [18] was “the patient was cured”. For the same compound, the “activity against gram-negative versus gram-positive bacteria” value [19] was “much less active against free-living gram-negative bacteria than free-living gram-positive bacteria”, the “formation of vacuoles in B. rodhaini blood stages” value ([20]; single dose of 20 mg/kg in mice) was “induces the formation of large vacuoles” and the parasitemia ([20]; single dose of 20 mg/kg, Balb/c mice) was “cleared parasitemia”. The survival ([20]; single dose of 20 mg/kg, Balb/c mice, infection uniformly lethal in untreated animals) was 100%, the “antioxidant enzymes in B. rodhaini” value ([20]; single dose treatment in mice) was “upregulated” and the parasitemia ([21]; 100 mg tablet (9-11.5 mg/kg) on Days 12, 19 and 48) was “sufficient to clear and cure”. For the same compound, the “symptoms of infections such as anorexia, elevated respiration and pulse” value [21] was “alleviated”, the “effect on QTC prolongation associated with chloroquine” value ([22]; coadministered with chloroquine) was “did not increase the QTC prolongation” and the “effect on QTC interval” value ([22]; doses of up to 1200 mg over three days) was “not found to increase the upper limit of 90% confidence interval of the QTC interval”. For the same compound, the “day by which all patients cleared blood stage parasites” value [23] was at most 8 days, the “relapses during the follow up period” value ([23]; patients with data available) was “no relapses” and the half-life [24] was 14 days. The “overall rate of adverse events relative to placebo” value [25] was “without increasing the overall rate of adverse events”, the “specific adverse events with increased risk” value [25] was “gastrointestinal effects [mild to moderate] and cornea verticillata” and the “single dose that cleared Babesia parasitemia” value [11] was 20 mg/kg.
